Measured values: patent US10752628B2, “Compounds and methods for treating synovial sarcomas” (THE BROAD INSTITUTE, INC., priority 2015, dated 2020)

Tests used:
Type in all cases: cell-based, human
[1] = tested on: BAF47 within the BAF complex; assay: anti-Brg immunoprecipitation of BAF complexes followed by anti-BAF47 western blot in Aska cells; settings: 48 hours at 16 μM, relative to DMSO control
Method: Briefly, naïve, unmodified Aska SS cells were treated for 48 hours at 16 μM concentration of all 5 positive hit compounds (as well as negative compounds for controls). The western blot reflects IPs of BAF complexes highlighting increased incorporation/stability of BAF47 relative to DMSO control. The bar graph highlights levels of BAF47 (measured via western blot quantitative densitometry) over n=3 experiments for each compound, including testing against three other negative compounds.
(§1) All cell types were grown under standard conditions and lysed and homogenized in Buffer A (10 mM Hepes (pH 7.6), 25 mM KCl, 1 mM EDTA, 10% glycerol, 1 mM DTT, and protease inhibitors (complete mini tablets (Roche) supplemented with 1 mM PMSF) on ice. Nuclei were sedimented by centrifugation (1,000×g), resuspended in Buffer C (10 mM Hepes (pH 7.6), 3 mM MgCl2, 100 mM KCl, 0.1 mM EDTA, 10% glycerol, 1 mM DTT, and protease inhibitors), and lysed by the addition of ammonium sulfate to a final concentration of 0.3 M. Soluble nuclear proteins were separated by the insoluble chromatin fraction by ultracentrifugation (100,000×g) and precipitated with […] ammonium sulfate for 20 min on ice. Protein precipitate was isolated by ultracentrifugation (100,000×g), and resuspended in IP buffer (150 mM NaCl, 50 mM Tris-HCl (pH 8.0), 1% NonidetP-40, 0.5% deoxycholate, 1 mM DTT, 1 mM PMSF with protease inhibitors) for immunoprecipitation analyses or HEMG-0 buffer (25 mM HEPES pH 7.9, 0.1 mM EDTA, 12.5 mM MgCl2, 100 mM KCl, freshly supplemented with DTT and PMSF) for glycerol gradient analyses.
(§2) Nuclear extracts were resuspended in IP buffer and precleared for 30 minutes at 4 degrees C. using Protein G/A Sepharose beads (GE Healthcare). The protein concentration was determined using Bradford assay and adjusted to a final volume of 250 μL at a final concentration of 1.5 mg/mL with IP buffer. Each IP was incubated with 2.5 μg of antibody overnight at 4° C. and then for 2 h with 20 μL Protein A/G Sepharose beads. The beads were washed four times at room temperature with 1 mL IP buffer and resuspended in 20 μL 2× gel loading buffer (4×LDS Buffer; Invitrogen)+DTT.

[2] = tested on: Aska synovial sarcoma cells; assay: Synovial sarcoma cell viability by CellTiter Glo luminescence
Method: FIGS. 15A-15C comprise a set of graphs illustrating the finding that compounds of the invention reduce synovial sarcoma cell viability as measured by CellTiter Glog luminescence.
The effect of compounds of the invention on synovial sarcoma cell viability was assessed as measured by CellTiter Glo® luminescence (FIGS. 15A-15B). Briefly, cells were plated under standard conditions and allowed to grow to 75% confluence prior to treatment with compounds. CellTiterGlo reagent was used to measure cell viability.

[3] = tested on: BAF47 within the BAF complex; assay: BAF155 immunoprecipitation and western blot for BAF47 in Aska cells; settings: for BAF47 stabilization within the BAF complex (BAF155 immunoprecipitation): Aska cells, twenty-four hours, single 30 micromolar dose
Method: These include resynthesized positive hits for Compounds 5-6.
FIG. 8 comprises a series of images and graph illustrating the activity of Compound 5 in Yamato cells. Briefly, Yamato cells were treated with 30 μM compound for 24 hours over n=5 replicates. The graph depicts levels of BAF47 in DMSO treated vs Compound 5-treated cells.
as §1, §2

BAF47 = assay: Time and dose study of Compound 11 on BAF47 stability in Aska cells; settings: 0-30 micromolar, 24, 48 and 72 hours
Method: FIG. 9 comprises a set of bar graphs illustrating the effects of Compound 11 (illustrated), the lead compound lacking the hydroxyl group, as a function of time and dose in Aska cells.
Compound 11 was added at doses from 0-30 micromolar, and the results monitored at 24, 48, and 72 hours after treatment.

SMILES | BAF47 stabilization (anti-Brg IP, anti-BAF47 western blot) [1] | Cell viability (CellTiter Glo luminescence) [2] | BAF47 stabilization within the BAF complex (BAF155 immunoprecipitation) [3] | BAF47 stabilization (western blot image, FIG. 8 lower panel) ([3]; Aska-SS cells upon treatment with Compound 5) | BAF47 stability as a function of time and dose (BAF47)
C[C@@H]1CN([C@H](C)CO)C(=O)c2cccc(NC(=O)c3ccc(-c4nccs4)cc3)c2O[C@@H]1CN(C)Cc1ccc(C(=O)Nc2ccccc2N)cc1 [Compound 1, N-(2-aminophenyl)-4-(((((2S,3R)-5-((R)-1-hydroxypropan-2-yl)-3-methyl-6-oxo-10-(4-(thiazol-2-yl)benzamido)-3,4,5,6-tetrahydro-2H-benzo[b][1,5]oxazocin-2-yl)methyl)(methyl)amino)methyl)benzamide] | stabilized BAF47 |  |  |  | 
C[C@@H]1CN([C@H](C)CO)C(=O)c2cc(NC(=O)NC3CCCCC3)ccc2O[C@@H]1CN(C)S(=O)(=O)c1cccs1 [Compound 3, N-(((2S,3R)-8-(3-cyclohexylureido)-5-((R)-1-hydroxypropan-2-yl)-3-methyl-6-oxo-3,4,5,6-tetrahydro-2H-benzo[b][1,5]oxazocin-2-yl)methyl)-N-methylthiophene-2-sulfonamide] | stabilized BAF47 |  |  |  | 
COc1ccc2c3c([nH]c2c1)[C@@H](CO)N(Cc1ccccc1F)CC31CCN(C(=O)C2CCC2)CC1 [Compound 5, (S)-cyclobutyl(2′-(2-fluorobenzyl)-1′-(hydroxymethyl)-7′-methoxy-1′,2′,3′,9′-tetrahydrospiro[piperidine-4,4′-pyrido[3,4-b]indol]-1-yl)methanone] | stabilized BAF47 | resulted in cell toxicity | stabilized BAF47 within the BAF complex | stabilization of BAF47 | 
C[C@@H]1CCCCO[C@@H](CN(C)Cc2ccc(C(=O)Nc3ccccc3N)cc2)[C@H]2C[C@@H](CO)N(C2)C(=O)c2cc(N(C)C)ccc2O1 [Compound 8, N-(2-aminophenyl)-4-(((((13S,15R,5R,11R)-35-(dimethylamino)-15-(hydroxymethyl)-5-methyl-2-oxo-4,10-dioxa-1(1,3)-pyrrolidina-3(1,2)-benzenacycloundecaphane-11-yl)methyl)(methyl)amino)methyl)benzamide] | stabilized BAF47 |  |  |  | 
COc1ccc2c3c([nH]c2c1)CN(Cc1ccccc1F)CC31CCN(C(=O)C2CCC2)CC1 [Compound 11, cyclobutyl(2′-(2-fluorobenzyl)-7′-methoxy-1′,2′,3′,9′-tetrahydrospiro[piperidine-4,4′-pyrido[3,4-b]indol]-1-yl)methanone] |  |  | stabilized BAF47 within the BAF complex |  | increases BAF47 stability in dose-dependent manner
